Results: ChEMBL document CHEMBL3507680, “University of Dundee, Gates Library screen for HepG2 cell viability”

Experiment: Human HepG2 cell viability assay in 384 well format
Assay type: toxicity, cell-based
Design: dose 125 nL, time 70.5 hour; concentration not given beside the values
Conditions: HepG2 cells, read-out: Inhibition

SMILES | cytotoxicity at 70.5 h
COc1cccc(OCCNCc2ccccc2)c1 | -7.2%
NC(=O)CCn1cc(CNCCCc2csc(N)n2)c2ccccc21 | -6.3%
Cc1nc(-c2c(-c3ccccc3)ncn2[C@H]2C[C@@H](C(=O)O)N(C)C2)co1 | -11.1%
COCCN1C(=O)[C@H]2CC[C@@H]1CN(C(=O)Cc1c(F)cccc1Cl)C2 | -8.61%
CC(C)c1nccn1C(C)C(=O)N1CCN(c2cnccn2)CC1 (configuration not stated) | -11.1%
CCc1nnc(CN(C)c2nccc(CCC(F)(F)F)n2)o1 | -9.32%
COc1ccc(CNC2CCCc3nc(N(C)C)ncc32)c(OC)c1 (configuration not stated) | -8.28%
Cc1cccnc1CN(C)C(C(=O)O)c1ccc(-c2ccn[nH]2)cc1 (configuration not stated) | -3.62%
COc1cnc(CN2CCN(CC(C)C)C(=O)C2C)cc1O (configuration not stated) | 0.0157%
COCC(=O)N(Cc1cccc(C)c1)Cc1ccccc1OC | -4.3%
Cc1cc(C2CCC2)nc(NCC(C)(C)N2CCOCC2)n1 | 15.4%
COc1coc(CN2CCCC3(CCC(=O)N(C4CC4)C3)C2)cc1=O (configuration not stated) | -12.4%
Cc1[nH]c2ccc(CNc3cc(C#N)ccn3)cc2c1C | -4.75%
CC(C)Cn1cncc1CNC(=O)c1cccc(Cn2cccn2)c1 | -5.12%
Cc1nn(CCN2CCSCC2)cc1CNCC1CC1 | -14.6%
CO[C@H]1CN(Cc2cc(Cn3cncn3)c(C)cc2C)CC[C@H]1N | 6.57%
O=C1CC2(CCCC2)CN1CCOc1ccc(F)cc1 | -9.74%
Cc1ncc(C)c(N2Cc3cnn(Cc4ccc(F)cc4)c3C2)n1 | 13%
Cn1ncc(N2CCC(CNC(=O)[C@@H](N)c3ccccc3)CC2)cc1=O | -4.64%
C=C(C)COc1cccc(CN(CC)Cc2noc(C)n2)c1 | -0.0989%
N[C@@H]1CCN(Cc2cccc(N3CCOCC3)c2)C[C@H]1O | 26.8%
CCCn1cc(C(=O)NC2CCN(CC(=O)NC3CC3)CC2)c(C)n1 | 0.264%
CCNc1ncc(C2CC(=O)Nc3c2cnn3Cc2ccncc2)cn1 (configuration not stated) | 5.87%

SMILES | cytotoxicity at 70.5 h
Cc1nc(CNCc2cccc(OC34CCCN(CC3)C4)c2)n[nH]1 (configuration not stated) | -3.22%
Cc1nc2c(c(NCCc3nc(C)c(Cl)s3)n1)CCNCC2 | -11%
O=C1N(Cc2ccc(F)c(F)c2)CCCC12CCN(C1CCCC1)C2 (configuration not stated) | -2.62%
CCc1ccc(CNC[C@H]2C[C@@H](CO)N(C)[C@H]2c2ccccc2F)o1 | -2.04%
Cc1c(C)c(C)c2[nH]c(-c3cn(C4CCNCC4)nn3)nc2c1C | -5.74%
CCc1cc(NCCNc2ccncc2C)n2nc(C)c(C)c2n1 | -1.4%
Cc1cc(C)n2ncc(CN3CCC(Cn4cc(CO)nn4)CC3)c2n1 | 0.595%
CNC(=O)Cc1ccc(-n2ccnc2-c2cccc(C(=O)O)c2)cc1 | 17.5%
CN1CCC(N(CCc2ccccc2)Cc2noc(C3CC3)n2)CC1 | -12.8%
Nc1cnc(-c2ccc(F)cc2Cl)cn1 | 10.8%
CN1CCC(N(C)CCC(=O)N2CCN(Cc3cccc(F)c3)CC2)C1 (configuration not stated) | -0.236%
C=C(C)COc1ccccc1CN1CCC(C(=O)NCC)C1 (configuration not stated) | -7.01%
NCC1CCN(c2cnn(CCCn3cccn3)c(=O)c2)CC1 | -8.18%
CNC(=O)[C@@H]1C[C@H](N)CN1Cc1cc2cc(OC)ccc2nc1O | -8.56%
Cn1c(CCNC(=O)CC[C@@H]2CCCN3CCCC[C@H]23)n[nH]c1=O | -14.7%
Cc1cccc(CN2CCCC(O)(CNCc3cccc(F)c3)C2=O)c1 (configuration not stated) | -5.44%
CS(=O)(=O)c1ccc(-c2cc(O)cc(CCC3CCCCN3)c2)cc1 (configuration not stated) | -7.28%
CS(=O)(=O)N[C@H]1CN(C(=O)CCc2ccco2)C[C@@H]1C1CC1 | 19.3%
CC1(c2ccccc2)CCCN(Cc2nnc(-c3cccnc3)o2)C1 (configuration not stated) | -3.27%
Cc1cccc(C(C(=O)NCCCc2ccccn2)N(C)C)c1 (configuration not stated) | 21.2%
O=C(CCCn1cncn1)N1CCC2(CCCN(C3CCCC3)C2=O)C1 (configuration not stated) | -4.98%
CSc1nccc(N2CCC(NCc3ccc4nsnc4c3)CC2)n1 | 23.1%
CC(=O)Nc1ccc2nc(CN(C)Cc3snnc3C)ccc2c1 | -9.42%

SMILES | cytotoxicity at 70.5 h
Cc1cccc(C(=O)N2CCN(S(C)(=O)=O)[C@@H]3CS(=O)(=O)C[C@@H]32)n1 | -7.33%
CCC(NC(=O)c1cnc(-c2cccnc2)nc1)c1ccnn1C (configuration not stated) | 32.1%
CSc1ccccc1C(=O)N1CCOC(CCN(C)C)C1 (configuration not stated) | -15.3%
Nc1nc(N2CCCC(COc3ccc(F)cc3)C2)c2nc[nH]c2n1 (configuration not stated) | -7.35%
CC(C)C[C@H](NCc1cc(O)c2cccc(F)c2n1)C(N)=O | -11.8%
Cn1cccc1-c1cc(C(=O)N2CCCC2C(F)(F)F)[nH]n1 (configuration not stated) | -5.87%
COCc1noc(Cn2c(C)cc(C(F)(F)F)cc2=O)n1 | -10.7%
CCNC(=O)c1ccnc(CC2COc3c(cccc3OC)C2)c1 (configuration not stated) | -38.4%
Cc1ccc(C(C(=O)O)N2CCCN(Cc3ccccn3)CC2)c(F)c1 (configuration not stated) | -4.69%
CN1CCCC2(CCN(S(=O)(=O)c3ccc(-c4cnco4)s3)C2)C1=O (configuration not stated) | -7.66%
O=C(NCCN1CCOCC1)c1cc(COc2ccccc2F)[nH]n1 | 0.766%
COc1ccc(CCN(C)C(=O)CN2C(=O)OC[C@@H]2C(C)C)cc1OC | -4.47%
Cc1cccc(-c2ncc(CNC(C)Cc3ccncc3)cn2)c1 (configuration not stated) | -3.63%
CCn1nc(CC(C)C)cc1C(=O)N1CCC(n2cnnc2)CC1 | 8.59%
CC(C)[C@@H]1CN(Cc2cnc(C3CCCCC3)nc2)C[C@H]1C(=O)O | 8.1%
Cc1cc(N(C)Cc2snnc2C)nc(-c2cccnc2)n1 | -12.5%
Cc1ccc2nc(-c3nc4c([nH]3)CC(C)(C)CNC4=O)cn2c1 | 7.51%
CCn1cc(CN2C[C@H]3CC[C@@H]2CN(C(=O)c2ccncc2)C3)cn1 | 21%
CC(C)[C@H]1CN(C(=O)CC2CCC2)C[C@@H]1N(C)C | 18.9%
CCN1CCN(C[C@H]2CC[C@@H](Cc3ccc4c(c3)OCO4)O2)CC1 | -5.47%
Cn1cncc1C(=O)N1CCCC(c2ccn[nH]2)C1 (configuration not stated) | -16.9%
CCCn1ncc(C2CC(=O)NCc3nc4sc(C)cn4c32)c1C (configuration not stated) | -3.1%
COc1cccc2c(=O)n(Cc3cccnc3)cnc12 | -6.26%

SMILES | cytotoxicity at 70.5 h
Cc1cc(C)c2nc(CN3C[C@H](CCO)[C@@H](N)C3)cc(O)c2c1 | -4.09%
CC(=O)N1CCN(C(=O)Nc2ccc(Cl)cc2)[C@H]2CS(=O)(=O)C[C@H]21 | -2.86%
Cc1cc(N2CCOC(CN)C2)nc(-c2ccccc2)n1 (configuration not stated) | -10.8%
CC(=O)N[C@@H]1CN(Cc2nccn2C)C[C@H]1c1ccc(C)cc1 | 22.6%
Cc1ccc2c(c1)c(CNC(=O)C1CCCN(CC(N)=O)C1)nn2C (configuration not stated) | -10.2%
C[C@@H]1CN(c2cccnn2)CC[C@@]1(O)C1CCOCC1 | -4.49%
Cc1cc(C)n(CC(=O)N2CCCCC2CCN2CCCC2=O)c(=O)n1 (configuration not stated) | -12.3%
CCNC(=O)N1CCC(Nc2nccc(NCC)n2)CC1 | -11.4%
Cc1c(C(C)N)cnn1-c1cccc2ccccc12 (configuration not stated) | -5.48%
CCc1cc(NC2CCN(CC(N)=O)CC2)nc(N2CCCCC2)n1 | -2.44%
CC(C)N1CCC(C(=O)N2CCC(c3ccc(F)cc3)C2)CC1 (configuration not stated) | -20.4%
CN(C)C(=O)N1CCCn2nc(CNC(=O)CCc3ccsc3)cc2C1 | -9.25%
CCOC(=O)CC1CCCCN1C(=O)CCc1cc(Cl)no1 (configuration not stated) | -1.88%
N#Cc1c(N)nc2c(c1C1CCOC1)CCc1cc(O)ccc1-2 (configuration not stated) | -11.5%
Cc1nc(O)cc(C2CCCN(C(=O)CN(C)c3ccccc3)C2)n1 (configuration not stated) | 1.65%
COc1ccccc1OC1(C(=O)O)CCN(c2cnccn2)CC1 | 47.4%
Cc1nn(C)cc1-c1ccnc(N(C)Cc2ccoc2)n1 | -3.89%
CCOC(=O)N1CCN(C(=O)C(C)n2ccnc2C(C)C)CC1 (configuration not stated) | 8.16%
Cc1cc(C)c(-c2nc(-c3c(C)ncc4c3CCNC4)no2)o1 | -11.5%
CCc1cc(N2CCNCC2)n2nc(C)c(C)c2n1 | -3.36%
COc1ccc(CN2C[C@@H](CN(C)C)[C@@H](CO)C2)cc1OC | -3.1%
CS(=O)(=O)N1CCC(Oc2ccc(C(=O)NC3CCOC3)cc2Cl)CC1 (configuration not stated) | -7.64%
COc1cccc(OCC(=O)NCc2ccc3[nH]c(=O)[nH]c3c2)c1 | -13.7%

SMILES | cytotoxicity at 70.5 h
NC1CCCN(C(=O)c2csc(-c3ccc(C(F)(F)F)cc3)n2)CC1 (configuration not stated) | 36.2%
Cc1ccc(NCCCc2c(C)noc2C)nn1 | -6.84%
CN(C)C(=O)c1noc2c1CN(C(=O)CCC1CCCCN1C)CC2 (configuration not stated) | -4.32%
COCCN(Cc1ccc(OC)nc1)Cc1cccs1 | 29.6%
CCC(C)N(Cc1ccncc1)C(=O)CCC(=O)OC (configuration not stated) | 4.04%
COc1ccc(-c2cc[nH]n2)cc1CNC1CCCC1 | -7.14%
O=C(CCn1cncn1)N1CC[C@@H](c2ccc3ccccc3c2)[C@H](O)C1 | -10.5%
Cc1nc[nH]c1-c1nccn1-c1ccc(C(N)=O)c(N2CCCC2)c1 | 20.6%
Cc1nnc(CNCC2(O)CCCN(Cc3ccc(F)c(F)c3)C2=O)[nH]1 (configuration not stated) | -0.578%
Cc1ccccc1C(C(=O)NCCSC(F)(F)F)N(C)C (configuration not stated) | -11.1%
Cc1ccnc(CC(C)N(C)c2cc(CCN)nc(C)n2)c1 (configuration not stated) | -6.01%
O=C(CCc1nc(Cl)n[nH]1)NC1CCCN(CC2CCCCC2)C1 (configuration not stated) | 0.564%
CCN(Cc1cc(Cl)ccc1OC)Cc1cc(C)nn1C | 2.1%
O=C(O)CC1COCCN1Cc1ccccc1OCCc1ccccc1 (configuration not stated) | -3.62%
CC(=O)N1CCCCC1c1ncnn1-c1ccc2nc(C)sc2c1 (configuration not stated) | -4.05%
Cc1nc(CC(=O)N(CCN2CCOCC2)Cc2ccco2)c(C)s1 | -4.1%
CCOc1ncccc1C(=O)N1CCN(C)C2(CCN(C)CC2)C1 | 4.53%
N[C@H]1CN(S(=O)(=O)N2CCCC2)C[C@@H]1c1ccccc1 | -4.68%
CCc1ccc2nc(C)cc(C(=O)N[C@@H]3CCCNC3)c2c1 | 2.34%
Cc1nc(O)cc(CCNC(=O)C2CC(=O)N(CC(C)C)C2)n1 (configuration not stated) | -8.39%
